Data published in US20250213534A1, “5-METHOXY-N,N-[…][…] THE TREATMENT OF COGNITIVE DYSFUNCTION” (GH RESEARCH IRELAND LIMITED, priority 2022, published 2025).

Legend:
[1] = system: Escherichia coli (WP2 uvrA pKM101); test: Bacterial mutation test; type: cell-based; settings: up to 5000 μg/plate; absence and presence of rat liver S-9
Protocol: (§1) These conditions included treatments at concentrations up to 5000 μg/plate (the maximum recommended concentration according to current regulatory guidelines), in the absence and in the presence of a rat liver metabolic activation system (S-9).

[2] = system: Salmonella typhimurium (TA98, TA100, TA1535 and TA1537); test: Bacterial mutation test; type: cell-based; settings: up to 5000 μg/plate; absence and presence of rat liver S-9
Protocol: as §1

[3] = Pharmacokinetics after single dose via inhalation (LC-MS/MS); type: in vivo, human; settings: after 3 hours; whole dose range 6, 12, 18 mg
[4] = system: patients with postpartum depression (PPD); test: Clinical trial of 5-MeO-DMT via inhalation (individualized dosing regimen) in postpartum depression; settings: n=1
Protocol: The single-arm, open-label clinical trial will involve 15 adult female patients with clinically diagnosed postpartum depression (PPD).
The second dose (12 mg) will only be administered if: • a. A peak experience (total score of ⋅75) has not been achieved following the 6 mg dose, and • b. The 6 mg dose was safe and well-tolerated according to the investigator, • c. Any psychoactive effects (PsE) of the prior dose have subsided, and • d. Pre-dose vital parameters and forced expiratory volume in one second (FEV1) are in normal range, or if outside of the normal range, are not clinically significant according to the investigator. • 3. Similarly, a third dose (18 mg) will only be administered if: • a. A peak experience (total score of ⋅75) has not been achieved following the 12 mg dose, and • b. The 12 mg dose was safe and well-tolerated according to the investigator, and • c. Any PsE of the prior dose have subsided, and • d. Pre-dose vital parameters and forced expiratory volume in one second (FEV1) are in normal range, or if outside of the normal range, are not clinically significant according to the investigator.
The patients will be assessed for a peak psychedelic experience (based on a patient-scored visual analogue scale, the PE scale), sedation, and other endpoints after dosing. Follow-up visits are planned for Day 1, and Day 7 after the dosing day.
The following criteria must be met by all patients considered for clinical trial participation: • 1. Is female and in the age range between 18 and 45 years (inclusive) at screening. • 2. Has a body mass index (BMI) in the range of 18.5 and 35 kg/m^2 (inclusive) at screening. • 3. Meets the trial criteria for PPD as assessed by a trial psychiatrist or registered psychologist: • a. Diagnosis of Major Depressive Disorder without psychotic features, confirmed by the Mini-International Neuropsychiatric Interview (MINI), with peri-partum onset that began no earlier than gestation and no later than the first 4 weeks postpartum. • b. Has a Montgomery-Åsberg Depression Rating Scale (MADRS) total score of equal to or greater than 28 at screening and pre-dose on Day 0. • 6. […] Patients must have a negative pregnancy test at screening and on the pre-test day (Day −1). • 5. Is willing to delay start of other antidepressant or anxiety medication until after the end of the trial at Day 7 and agrees to keep any psychotherapy unchanged during the trial.

COc1ccc2[nH]cc(CCN(C)C)c2c1 [5-MeO-DMT]
Induction of mutation [1]: did not induce mutation | Induction of mutation [2]: did not induce mutation | Detectability in the plasma [3]: no longer detectable | Inhalation-related adverse events [4]: no inhalation-related adverse events | MADRS remission (MADRS total score equal or less than 10) [4]: fulfilled | MADRS response (at least 50% improvement from baseline) [4]: fulfilled | Reported adverse events (cramping left abdominal pain and headache, Day 0) [4]: mild, short-lasting and resolved spontaneously | BIMF total score improvement ([4]; Day 7, from 92 to 105): 14% | BIMF item 2 score: I feel rested ([4]; Day 7, Day 0 0): 2 | BIMF item 19 score: As time goes on, I am getting better at taking care of my baby ([4]; Day 7, Day 0 0): 1 | BIMF item 18 score: Anxiety or worry often interferes with my mothering ability ([4]; Day 7, Day 0 2): 5 | BIMF item 16 score: I worry about how other people judge me (as a mother) ([4]; Day 7, Day 0 3): 5 | BIMF item 13 score: I am taking good care of my physical needs (eating, showering, etc) ([4]; Day 7, Day 0 4): 5 | BIMF item 4 score: My baby and I understand each other ([4]; Day 7, Day 0 5): 5 | BIMF item 5 score: I am able to relax and enjoy time with my baby ([4]; Day 7, Day 0 5): 6 | BIMF item 9 score: I am getting enough encouragement from other people ([4]; Day 7, Day 0 5): 6 | BIMF item 10 score: I trust my own feelings (instincts) when it comes to taking care of my baby ([4]; Day 7, Day 0 5): 6 | BIMF item 11 score: I take a little time each week to do something for myself ([4]; Day 7, Day 0 5): 6 | BIMF item 15 score: My baby and I are getting into a routine ([4]; Day 7, Day 0 5): 6 | BIMF item 17 score: I am able to take care of my baby and my other responsibilities ([4]; Day 7, Day 0 5): 5 | BIMF item 1 score: I am a good mother ([4]; Day 7, Day 0 6): 6 | BIMF item 3 score: I am comfortable with the way I've chosen to feed my baby (either bottle or breast, or both) ([4]; Day 7, Day 0 6): 6 | BIMF item 6 score: There are people in my life that I can trust to care for my baby when I need a break ([4]; Day 7, Day 0 6): 6 | BIMF item 8 score: I am getting enough adult interaction ([4]; Day 7, Day 0 6): 6 | BIMF item 12 score: I am taking good care of my baby's physical needs (feedings, changing diapers, doctor's appointments) ([4]; Day 7, Day 0 6): 6 | BIMF item 14 score: I make good decisions about my baby's health and well being ([4]; Day 7, Day 0 6): 6 | BIMF item 20 score: I am satisfied with the job I am doing as a new mother ([4]; Day 7, Day 0 6): 5 | BIMF item 1 Δ (Day 7) ([4]; Day 7 vs Day 0): 0 | BIMF item 2 Δ (Day 7) ([4]; Day 7 vs Day 0): 2 | BIMF item 3 Δ (Day 7) ([4]; Day 7 vs Day 0): 0 | BIMF item 4 Δ (Day 7) ([4]; Day 7 vs Day 0): 0 | BIMF item 5 Δ (Day 7) ([4]; Day 7 vs Day 0): 1 | BIMF item 6 Δ (Day 7) ([4]; Day 7 vs Day 0): 0 | BIMF item 7 Δ (Day 7) ([4]; Day 7 vs Day 0): 0 | BIMF item 8 Δ (Day 7) ([4]; Day 7 vs Day 0): 0 | BIMF item 9 Δ (Day 7) ([4]; Day 7 vs Day 0): 1 | BIMF item 10 Δ (Day 7) ([4]; Day 7 vs Day 0): 1 | BIMF item 11 Δ (Day 7) ([4]; Day 7 vs Day 0): 1 | BIMF item 12 Δ (Day 7) ([4]; Day 7 vs Day 0): 0 | BIMF item 13 Δ (Day 7) ([4]; Day 7 vs Day 0): 1 | BIMF item 14 Δ (Day 7) ([4]; Day 7 vs Day 0): 0 | BIMF item 15 Δ (Day 7) ([4]; Day 7 vs Day 0): 1 | BIMF item 16 Δ (Day 7) ([4]; Day 7 vs Day 0): 2 | BIMF item 17 Δ (Day 7) ([4]; Day 7 vs Day 0): 0 | BIMF item 18 Δ (Day 7) ([4]; Day 7 vs Day 0): 3 | BIMF item 19 Δ (Day 7) ([4]; Day 7 vs Day 0): 1 | BIMF item 20 Δ (Day 7) ([4]; Day 7 vs Day 0): −1 | Time to clinical remission after administration ([4]; IDR 6 mg followed by 12 mg): ≤ 2 h
